Data: patent publication US9533999B2, “Fused thiazin-3-ones as KCA3.1 inhibitors” (Boehringer Ingelheim International GmbH, priority 2012, dated 2017)
pIC50: −log10 of the molar value.

target: human KCa3.1 (Homo sapiens (Human), UniProt O15554); assay: KCa3.1 Assay (FLIPR thallium influx); type: cell-based; settings: HEK293 cells over-expressing human KCa3.1; Tl+ influx, FLIPR dye; 15 min compound treatment
Protocol: HEK293 cells over-expressing human KCa3.1 are used to measure the effects of compounds in inhibiting the KCa3.1 channel function. The assay is based on measuring the influx of Tl^+ through KCa3.1 using a FLIPR dye assay (FLIPR Potassium Ion Channel Assay Kit #R8154 by Molecular Devices). The day before the assay HEK293/KCa3.1 cells are seeded on a 384 well plate. On the day of the assay, media is removed and replaced with Molecular Devices Potassium Ion Channel dye then incubated for 1 hour according to manufacturer's recommendations. The cells are then treated with compounds or DMSO control for 15 min, followed by addition of thallium (final concentration=1.5 mM) and ionomycin (final concentration=1 uM). The plate is read on HAMAMATSU […] measuring fluorescence signal for 50 seconds using (Em: 565-625 nm). Data analysis: HAMAMATSU 6000 data are exported using max-min value for frame 10 and 40 and corrected by spatial uniformity correction. Percent of control (POC) is calculated as 100×(max-minFlsample−max-minFllow)/(max-minFlhi−max-minFllow). Max-min Flsample is max-min value of each sample well containing test compound. Max-min Fllow is average max-min value of wells containing reference inhibitory compound. Max-min Flhi is average max-min value of wells containing DMSO. IC50 values are determined by nonlinear curve fitting of the data from a duplicate 11-point concentration-response curve.

Structure (SMILES) | pIC50
CC(C)c1nc2c(s1)S(=O)(=O)CC(=O)N2Cc1cccc(C(F)(F)F)c1 [Compound I-35] | 6.62
NC(=O)c1ccc2c(n1)N(Cc1ccc(Cl)c(C(F)(F)F)c1)C(=O)CS2(=O)=O [Compound I-20] | 6.31
CC(c1cccc(C(F)(F)F)c1)N1C(=O)CS(=O)(=O)c2ccc(C(=O)N(C)C)nc21 (stereo not shown) [Compound I-19] | 5.66
CC(C)c1nc2c(s1)S(=O)(=O)CC(=O)N2Cc1ccc(F)c(OC(F)(F)F)c1 [Compound I-34] | 7.02
Cc1nc2c(s1)N(Cc1ccc(F)c(OC(F)(F)F)c1)C(=O)CS2(=O)=O [Compound I-27] | 6.51
O=C1CS(=O)(=O)c2ncsc2N1Cc1cccc(OC(F)(F)F)c1 [Compound I-31] | 5.66
C[C@@H](c1cccc(C(F)(F)F)c1)N1C(=O)CS(=O)(=O)c2nccnc21 [Compound I-22, 1,1-dioxo-4-[(S)-1-(3-trifluoromethyl-phenyl)-ethyl]-1,4-dihydro-2H-11ambda*6*-pyrazino[2,3-b][1,4]thiazin-3-one] | 5.96
Cc1nc2c(s1)S(=O)(=O)CC(=O)N2Cc1cccc(C(F)(F)F)c1 [Compound I-37] | 6.64
O=C1CS(=O)(=O)c2cccnc2N1Cc1ccc(F)c(OC(F)(F)F)c1 [Compound I-5] | 7.31
COC(=O)c1cc2c(s1)S(=O)(=O)CC(=O)N2Cc1cccc(OC(F)(F)F)c1 [Compound I-42] | 6.82
COC(=O)c1cc2c(s1)S(=O)(=O)CC(=O)N2Cc1cccc(C(F)(F)F)c1 [Compound I-41] | 6.72
O=C1CS(=O)(=O)c2cccnc2N1Cc1ccc(Cl)c(OC(F)(F)F)c1 [Compound I-12] | 7.11
Cc1nc2c(s1)N(Cc1cccc(C(F)(F)F)c1)C(=O)CS2(=O)=O [Compound I-28] | 5.40
CC(c1cccc(C(F)(F)F)c1)N1C(=O)CS(=O)(=O)c2ncsc21 (stereo not shown) [Compound I-32] | 6.00
O=C1CS(=O)(=O)c2nc(C3CC3)sc2N1Cc1cccc(C(F)(F)F)c1 [Compound I-30] | 5.37
O=C1CS(=O)(=O)c2ccsc2N1Cc1ccc(F)c(OC(F)(F)F)c1 [Compound I-39] | 7.41
COC(=O)c1cc2c(s1)S(=O)(=O)CC(=O)N2C(C)c1cccc(C(F)(F)F)c1 (stereo not shown) [Compound I-43] | 6.92
O=C1CS(=O)(=O)c2nccnc2N1Cc1cccc(C(F)(F)F)c1 [Compound I-24] | 5.59
O=C1CS(=O)(=O)c2ncsc2N1Cc1ccc(F)c(OC(F)(F)F)c1 [Compound I-26] | 6.29
Cc1nc2c(s1)N(Cc1cccc(OC(F)(F)F)c1)C(=O)CS2(=O)=O [Compound I-29] | 5.62

Structure (SMILES) | pIC50
O=C1CS(=O)(=O)c2cccnc2N1Cc1ccc(Cl)c(S(=O)(=O)C(F)(F)F)c1 [Compound I-13] | 6.08
O=C1CS(=O)(=O)c2cccnc2N1CCc1ccccc1C(F)(F)F [Compound I-6] | 5.30
O=C1CS(=O)(=O)c2cc(Cl)cnc2N1Cc1ccc(Cl)c(C(F)(F)F)c1 [Compound I-10] | 6.74
CC(c1ccc(Cl)c(C(F)(F)F)c1)N1C(=O)CS(=O)(=O)c2cccnc21 (stereo not shown) [Compound I-4] | 6.85
CC(c1cccc(C(F)(F)F)c1)N1C(=O)CS(=O)(=O)c2ncc(Br)cc21 (stereo not shown) [Compound I-21] | 6.62
O=C1CS(=O)(=O)c2scnc2N1Cc1ccc(F)c(OC(F)(F)F)c1 [Compound I-33] | 6.96
CC(C)c1nc2c(s1)S(=O)(=O)CC(=O)N2Cc1cccc(OC(F)(F)F)c1 [Compound I-36] | 6.42
O=C1CS(=O)(=O)c2cccnc2N1CCc1cccc(C(F)(F)F)c1 [Compound I-7] | 6.46
O=C1CS(=O)(=O)c2sccc2N1Cc1ccc(F)c(OC(F)(F)F)c1 [Compound I-40] | 7.32
O=C1CS(=O)(=O)c2nccnc2N1Cc1ccc(F)c(OC(F)(F)F)c1 [Compound I-23] | 6.77
O=C1CS(=O)(=O)c2ncsc2N1Cc1cccc(C(F)(F)F)c1 [Compound I-25, 4,4-dioxo-7-(3-trifluoromethyl-benzyl)-4,7-dihydro-5H-41ambda*6*-thiazolo[4,5-b][1,4]thiazin-6-one] | 5.43
COC(=O)c1ccc2c(n1)N(Cc1ccc(F)c(OC(F)(F)F)c1)C(=O)CS2(=O)=O [Compound I-18] | 7.06
O=C1CS(=O)(=O)c2cc(Cl)cnc2N1Cc1ccc(F)c(OC(F)(F)F)c1 [Compound I-15] | 7.04
CC(c1cc(C(F)(F)F)ccn1)N1C(=O)CS(=O)(=O)c2cccnc21 (stereo not shown) [Compound I-8] | 5.72
CC(c1cccc(C(F)(F)F)c1)N1C(=O)CS(=O)(=O)c2cccnc21 (stereo not shown) [Compound I-2] | 6.92
O=C1CS(=O)(=O)c2cccnc2N1Cc1cccc(C(F)(F)F)c1 [Compound I-1] | 6.54
O=C1CS(=O)(=O)c2cccnc2N1CCc1cccc(Cl)c1 [Compound I-16] | 5.70
O=C1CS(=O)(=O)c2cccnc2N1Cc1ccc(Cl)c(C(F)(F)F)c1 [Compound I-3] | 6.74
CC(c1cccc(C(F)(F)F)c1)N1C(=O)CS(=O)(=O)c2ccsc21 (stereo not shown) [Compound I-38] | 7.15
CC(c1cccc(C(F)(F)F)c1)N1C(=O)CS(=O)(=O)c2cc(Cl)cnc21 (stereo not shown) [Compound I-9] | 6.96

Other lines, results leading:

pIC50 | Structure (SMILES)
7.33 | O=C1CSc2cccnc2N1Cc1ccc(Cl)c(S(=O)(=O)C(F)(F)F)c1 [II-8]
6.29 | CC(C)c1nc2c(s1)SCC(=O)N2Cc1cccc(OC(F)(F)F)c1 [II-20]
6.49 | O=C1CSc2ncsc2N1Cc1cccc(C(F)(F)F)c1 [II-2, 7-(3-trifluoromethyl-benzyl)-7H-thiazolo[4,5-b][1,4]thiazin-6-one]
6.89 | O=C1CSc2cc(Cl)cnc2N1Cc1ccc(F)c(OC(F)(F)F)c1 [II-9]
7.22 | O=C1CSc2ncsc2N1Cc1ccc(F)c(OC(F)(F)F)c1 [II-17]
7.39 | CC(c1cccc(C(F)(F)F)c1)N1C(=O)CSc2cccnc21 (stereo not shown) [II-4]
6.77 | CC(c1cccc(C(F)(F)F)c1)N1C(=O)CSc2ncsc21 (stereo not shown) [II-16]
6.60 | CC(C)c1nc2c(s1)SCC(=O)N2Cc1ccc(F)c(OC(F)(F)F)c1 [II-18]
7.28 | O=C1CSc2cccnc2N1Cc1cccc(OC(F)(F)F)c1 [II-1, 4-(3-trifluoromethoxy-benzyl)-4H-pyrido[3,2-b][1,4]thiazin-3-one]
7.18 | O=C1CSc2ccc(CO)nc2N1Cc1ccc(Cl)c(C(F)(F)F)c1 [II-11]
6.74 | NC(=O)c1ccc2c(n1)N(Cc1ccc(Cl)c(C(F)(F)F)c1)C(=O)CS2 [II-3]
5.80 | O=C1CSc2nc(C3CC3)sc2N1Cc1cccc(C(F)(F)F)c1 [II-14]
7.34 | O=C1CSc2cccnc2N1Cc1ccc(Cl)c(C(F)(F)F)c1 [II-5]
7.17 | Cc1nc2c(s1)SCC(=O)N2C(C)c1cccc(C(F)(F)F)c1 (stereo not shown) [II-23]
6.80 | O=C1CSc2ncsc2N1Cc1cccc(OC(F)(F)F)c1 [II-13]
6.40 | CC(C)c1nc2c(s1)SCC(=O)N2C(C)c1cccc(C(F)(F)F)c1 (stereo not shown) [II-21]
6.47 | CC(C)c1nc2c(s1)SCC(=O)N2Cc1cccc(C(F)(F)F)c1 [II-19]
7.14 | Cc1nc2c(s1)SCC(=O)N2Cc1cccc(C(F)(F)F)c1 [II-22]
6.59 | Cc1nc2c(s1)N(Cc1cccc(OC(F)(F)F)c1)C(=O)CS2 [II-12]
6.31 | Cc1nc2c(s1)N(Cc1cccc(C(F)(F)F)c1)C(=O)CS2 [II-15]
5.44 | CC(c1cc(C(F)(F)F)nn1C)N1C(=O)CSc2cccnc21 (stereo not shown) [II-6]
6.51 | O=C1CSc2cccnc2N1Cc1cccc(Br)c1 [II-10]
7.28 | O=C1CSc2cccnc2N1Cc1ccc(Cl)c(SC(F)(F)F)c1 [II-7]

system: aortas of ApoE−/− mice; assay: not given; settings: cited from earlier work

Structure (SMILES) | development of atherosclerosis
Clc1ccccc1C(c1ccccc1)(c1ccccc1)n1cccn1 [TRAM-34] | significantly reduces the development of atherosclerosis
Clc1ccccc1C(c1ccccc1)(c1ccccc1)n1ccnc1 [clotrimazole] | significantly reduces the development of atherosclerosis

system: C57BL/6 mice; assay: not given; settings: MOG35-55 peptide induced; cited from earlier work

Structure (SMILES) | inhibition in EAE model
Clc1ccccc1C(c1ccccc1)(c1ccccc1)n1cccn1 [TRAM-34] | inhibits

system: mice; assay: not given; settings: UUO-induced, treated mice; cited from earlier work

Structure (SMILES) | progression of renal fibrosis
Clc1ccccc1C(c1ccccc1)(c1ccccc1)n1cccn1 [TRAM-34] | attenuated progression of renal fibrosis
